Experimental data: patent US9193984B2, “Method for detecting interactions between two and more biological macromolecules” (Korea Basic Science Institute, priority 2008, dated 2015)

Molecular target: T1, first construct (TMD-mRFP) in CHO-k1 cells (Homo sapiens, UniProt Q05655, K378R/Y313F)
T1 construct: expressed in transfected cells; host or cells: CHO-k1
Assay: Translocation of first construct (TMD-mRFP) toward the cell membrane depending on PMA concentration
Format: cell-based, Cricetulus griseus
From the text: In order to optimize the translocation characteristic of the translocation module, the first construct vector (pTMD-mRFP-C3) shown in FIG. 5 was used to determine the optimum concentration of PMA (phorbol-12-myristate-13-acetate), which was used as an external stimulation. Detailed experimental procedures were the same as in FIG. 5.
A cover slip containing the cells in which the first construct and second construct vectors had been introduced was fixed to a perfusion chamber and mounted on the object stage of a confocal laser fluorescence microscope (Carl Zeiss LSM510). Images of the construct vectors were taken before and after external stimulation (treatment with 1 μM PMA).
Translocation efficiency of the first construct using the pTMD-mRFP-C3 vector depending on the concentration of external stimulant PMA was measured as follows. The expression vector of the first construct was transformed into CHO-k1 cells and overexpressed. After 18 hours of culturing, PMA was treated at 1, 5, 10, 20, 40, 50, 80 and 100 nM and 1 and 5 μM.

T1 sequence (Q05655 whole entry Y313F/K378R): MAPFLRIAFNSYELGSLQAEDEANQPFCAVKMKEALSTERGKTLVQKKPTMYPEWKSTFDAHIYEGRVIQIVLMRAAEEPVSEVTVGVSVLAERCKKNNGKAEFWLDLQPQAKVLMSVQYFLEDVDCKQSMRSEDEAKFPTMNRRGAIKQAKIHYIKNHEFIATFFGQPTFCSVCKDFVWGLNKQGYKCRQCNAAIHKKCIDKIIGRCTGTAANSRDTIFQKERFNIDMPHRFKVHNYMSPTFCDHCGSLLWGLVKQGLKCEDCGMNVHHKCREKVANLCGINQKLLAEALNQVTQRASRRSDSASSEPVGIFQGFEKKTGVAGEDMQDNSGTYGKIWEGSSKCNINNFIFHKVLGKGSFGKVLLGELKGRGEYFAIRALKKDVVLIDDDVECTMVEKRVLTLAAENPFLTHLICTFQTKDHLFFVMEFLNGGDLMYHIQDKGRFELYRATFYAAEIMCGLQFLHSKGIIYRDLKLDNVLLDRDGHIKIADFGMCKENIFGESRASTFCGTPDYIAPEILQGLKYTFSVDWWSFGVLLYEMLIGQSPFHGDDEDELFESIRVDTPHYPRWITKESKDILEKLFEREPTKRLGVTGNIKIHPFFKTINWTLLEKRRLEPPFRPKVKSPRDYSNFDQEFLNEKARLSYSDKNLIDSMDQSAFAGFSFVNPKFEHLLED

CCCCCCCCCCCCCC(=O)O[C@@H]1[C@@H](C)[C@@]2(O)[C@@H](C=C(CO)C[C@]3(O)C(=O)C(C)=C[C@@H]23)[C@@H]2C(C)(C)[C@]12OC(C)=O [PMA, phorbol-12-myristate-13-acetate]
cells with translocation of first construct toward the cell membrane (PMA 50 nM, CHO-k1, 200 cells counted): ≥ 90%
movement of red fluorescence toward the cell membrane (PMA 100 nM or higher): increased
